The structures appear in SMILES notation. Converted amounts (≈) assume the structure as drawn. Results filed as inconclusive are left out. The source made the active and inactive calls. No rule for the calls is given here. Bounds are passed on as bounds.

The test system of this assay is M. tuberculosis H37Rv growth inhibition. As to the kind of experiment: Mycobacterium tuberculosis H37Rv growth inhibition, cell based, confirmatory dose response (AID 1949).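 Also: bacteria grown 7 days with compound before Alamar blue readout.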
Broadly, the IC50 is the concentration needed to halve the response being measured. Consider `COc1ccc(-c2csc(Nc3ccc(C)cn3)n2)cc1`, for which the half-inhibitory concentration (IC50) was 7.18 µg/mL (≈ 24.1 µM).
With `Cc1cc([N+](=O)[O-])ccc1NC(=O)Nc1cccc(C(F)(F)F)c1` the figure was 0.24 µg/mL (≈ 0.707 µM); with `O=C(Nc1ccc(Cl)cc1)c1cc([N+](=O)[O-])ccc1O`, 17.7 µg/mL (≈ 60.6 µM); with `O=C(c1cccc([N+](=O)[O-])c1)N1N=C(c2ccc(Br)cc2)CC1(O)C(F)(F)F` (configuration not stated), 2.13 µg/mL (≈ 4.65 µM).
For the compound `O=C(CSc1nnc(SCc2cccc3ccccc23)s1)Nc1ccccc1F`, the IC50 was 1.45 µg/mL (≈ 3.28 µM).
Regarding `COc1cc(/C=C2\Oc3ccccc3C2O)cc(Cl)c1OC` (configuration not stated), the IC50 is 3.04 µg/mL (≈ 9.54 µM).
For `COc1nc(SC)nc2sc3c(c12)CCC3`, the IC50 is 1.47 µg/mL (≈ 5.82 µM).
With `O=C(Oc1ccc(Cl)c2cccnc12)c1ccccc1Br` the figure was > 50 µg/mL (inactive).
With `COc1ccccc1NC(=O)CSc1nc2cc3ccccc3cc2[nH]1` the figure was 3.08 µg/mL (≈ 8.47 µM); with `CCC(C)c1ccc(O)c(NC(=S)NC(=O)c2cncc(Br)c2)c1` (configuration not stated), below 0.1 µg/mL.
As to `O=c1c(Cl)c(Cl)cnn1Cc1ccccc1Cl`, the 50% inhibitory concentration (IC50) is 9.65 µg/mL (≈ 33.3 µM).
As for `Clc1cc(Br)ccc1OCCCn1ccnc1`, the IC50 was 15 µg/mL (≈ 47.4 µM).
Turning to `N#CSc1ccc(NC(=O)CSc2nc3ccccc3[nH]2)cc1`, the IC50 is 6.24 µg/mL (≈ 18.3 µM).
Turning to `Cc1cc(C)nc(/N=C(/N)Nc2ccc(OCc3ccccc3)cc2)n1`, the IC50 was 4.64 µg/mL (≈ 13.4 µM).
`O=C(Oc1ccccc1)c1ccc(COC(=O)c2ccco2)cc1`: the IC50 was 2.69 µg/mL (≈ 8.35 µM).
As to `C=CCc1cc(/C=C/[N+](=O)[O-])cc(OCC)c1O`, the IC50 was 5.69 µg/mL (≈ 22.8 µM).
Take `O=C1c2cccc3cccc(c23)C(=O)N1CCN1CCN(CCc2ccccc2)CC1`: the IC50 was 23.8 µg/mL (≈ 57.5 µM).
As to `O=C(NC1CCCCC1)N1CCN(Cc2ccc3c(c2)OCO3)CC1`, the IC50 is 0.39 µg/mL (≈ 1.13 µM).
Consider `COc1ccc(C2CC(=O)Nc3ccc4ccccc4c32)c(I)c1O` (configuration not stated), for which the IC50 is 3.48 µg/mL (≈ 7.82 µM).
As for `CCOC(=O)Cn1nnc(-c2ccc(OCc3ccccc3F)cc2)n1`, the 50% inhibitory concentration (IC50) is 0.28 µg/mL (≈ 0.786 µM).
For `CCOC(=O)COc1ccc2c(c1)c(C(=O)OCC)c(C)n2CC`, the IC50 is 0.4 µg/mL (≈ 1.2 µM).
With `O=C(Nc1nc2ccccc2[nH]1)c1cccc(Cl)c1`, the IC50 was 10.4 µg/mL (≈ 38.3 µM).
Take `Cc1c(C(=O)c2ccccc2)sc2nc(-c3ccccc3)nc(N)c12`: the half-inhibitory concentration (IC50) was 7.76 µg/mL (≈ 22.5 µM).
Turning to `CCc1nc2ccccc2n1CCCOc1ccccc1`, the concentration for half-maximal inhibition (IC50) is 0.5 µg/mL (≈ 1.78 µM).
Take `CCC(C)c1ccc(OCC(=O)Nc2ccc(OC)c([N+](=O)[O-])c2)cc1` (configuration not stated): the IC50 is 1.61 µg/mL (≈ 4.49 µM).
As to `O=C(Nc1ccc(OC(F)(F)F)cc1)Nc1cccc([N+](=O)[O-])c1`, the IC50 was 0.19 µg/mL (≈ 0.557 µM).
Turning to `O=C(OCc1ccccc1Cl)c1cc2ccccc2oc1=O`, the IC50 was > 50 µg/mL (inactive).
With `CC1CCc2sc3ncnc(NCCc4ccccc4)c3c2C1` (configuration not stated), the IC50 was 1.85 µg/mL (≈ 5.72 µM).
For the compound `COc1cccc(N2CCN(Cc3nc(N)nc(Nc4ccc(C)c(Cl)c4)n3)CC2)c1`, the 50% inhibitory concentration (IC50) was 1.45 µg/mL (≈ 3.3 µM).
In the case of `COc1ccccc1NC(=O)c1cnc(SC)nc1`, the IC50 was 3.97 µg/mL (≈ 14.4 µM).
As for `CCn1c(/C=C/c2ccc([N+](=O)[O-])o2)nc2ccc(I)cc2c1=O`, the 50% inhibitory concentration (IC50) was 2.04 µg/mL (≈ 4.67 µM).
`COc1cccc(N2CCN(Cc3nc(N)nc(Nc4ccc(C)c(C)c4)n3)CC2)c1`: the IC50 was 2.82 µg/mL (≈ 6.72 µM).
For `S=C(NCc1ccc(Cl)cc1)NCc1ccc(-n2cccn2)cc1`, the IC50 is 5.4 µg/mL (≈ 15.1 µM).
In the case of `O=C(Nc1ccc2c(c1)OCCO2)C(Cl)Cl`, the IC50 was 6.65 µg/mL (≈ 25.4 µM).
`CCCS(=O)(=O)c1nnnn1-c1cccc(OC)c1`: the IC50 was 0.65 µg/mL (≈ 2.3 µM).
Take `Cc1ccc(Cl)cc1N1CCN(C(=O)C2CCN(C(=O)c3ccc(C(C)(C)C)cc3)CC2)CC1`: the half-inhibitory concentration (IC50) is 3.38 µg/mL (≈ 7.01 µM).
Turning to `CCc1ccc(C(=O)NC(=S)Nc2ccc(Cc3ccncc3)cc2)cc1`, the half-inhibitory concentration (IC50) is 10.9 µg/mL (≈ 29.1 µM).
Consider `COC(=O)COc1ccc(NC(=O)c2ccc3c(c2)C(=O)N(C(C)(C)C)C3=O)cc1`, for which the IC50 is 0.32 µg/mL (≈ 0.78 µM).
With `CCOC(=O)COc1ccc2c(=O)c(-c3ccccc3Cl)c(C)oc2c1C` the figure was 0.98 µg/mL (≈ 2.53 µM); with `COc1ccc(Nc2ccnc3cc4ccccc4cc23)cc1`, 0.74 µg/mL (≈ 2.46 µM).
With `Cc1ccc([N+](=O)[O-])cc1NC(=O)Nc1cccc(Cl)c1` the figure was 0.21 µg/mL (≈ 0.687 µM).
As for `COC(=O)C(Oc1ccc2c(c1)oc(=O)c1cc(OC)ccc12)c1ccccc1` (configuration not stated), the IC50 is 1.32 µg/mL (≈ 3.38 µM).
For `CC(C)OC(=O)COc1cc(O)c2c(=O)cc(-c3ccccc3)oc2c1`, the half-inhibitory concentration (IC50) was 19.6 µg/mL (≈ 55.2 µM).
Take `CCCCOc1ccc(C(=O)NC23CC4CC(CC(C4)C2)C3)cc1`: the IC50 was 4.33 µg/mL (≈ 13.2 µM).
Turning to `CCCC1(O)CC(c2ccc(Cl)cc2)NC(c2ccc(Cl)cc2)C1C` (configuration not stated), the 50% inhibitory concentration (IC50) is 2.34 µg/mL (≈ 6.18 µM).
For `CC1=CC(C)(C)Nc2ccc(OC(=O)c3cccs3)cc21`, the IC50 is 3.02 µg/mL (≈ 10.1 µM).
On to `Cc1c(NC(=O)Nc2cccc(C(F)(F)F)c2)cccc1[N+](=O)[O-]`, for which the IC50 is 2.93 µg/mL (≈ 8.64 µM).
`Cn1nc([N+](=O)[O-])nc1Oc1ccc(Br)cc1`: the concentration for half-maximal inhibition (IC50) was 7.92 µg/mL (≈ 26.5 µM).
For `NC(N)=Nc1nc(-c2ccccc2)c2cc(F)ccc2n1`, the 50% inhibitory concentration (IC50) was 7.61 µg/mL (≈ 27.1 µM).
Consider `CCOC(=O)/C=C/C(=O)Nc1sc2c(c1C(=O)OC)CCC2`, for which the IC50 is 0.57 µg/mL (≈ 1.76 µM).
Take `O=C(/C=C/c1cccc(C(F)(F)F)c1)Nc1ccc(Cl)cc1`: the IC50 was 5.09 µg/mL (≈ 15.6 µM).
With `COC(=O)c1ccc(COC(=O)c2ccc(Cl)cc2)cc1`, the IC50 is > 50 µg/mL (inactive).
